± gives the expanded uncertainty stated by the source.
How the values were obtained:
[1] = 101 kPa, Liquid; for speed of sound: Sing-around technique in a fixed-path interferometer; for mass density: Vibrating tube method
[2] = xn = mol fraction of the nth substance listed; settings: 101 kPa, Liquid, x1 = 1; for speed of sound: Sing-around technique in a fixed-path interferometer; for mass density: Vibrating tube method

SMILES | speed of sound ([1]; 293.15 K) | mass density ([1]; 293.15 K) | speed of sound ([1]; 298.15 K) | mass density ([1]; 298.15 K) | speed of sound ([1]; 303.15 K) | mass density ([1]; 303.15 K) | speed of sound ([1]; 308.15 K) | mass density ([1]; 308.15 K) | speed of sound ([1]; 313.15 K) | mass density ([1]; 313.15 K) | speed of sound ([1]; 318.15 K) | mass density ([1]; 318.15 K) | speed of sound ([1]; 323.15 K) | mass density ([1]; 323.15 K) | speed of sound ([2]; 298.15 K) | mass density ([2]; 298.15 K) | speed of sound ([2]; 303.15 K) | mass density ([2]; 303.15 K) | speed of sound ([2]; 308.15 K) | mass density ([2]; 308.15 K) | also measured
CC(C)(N)CO [2-amino-2-methylpropan-1-ol] | 1501.4 ± 5 m/s | 936.751 ± 4.8 kg/m3 | 1483.4 ± 5 m/s | 932.596 ± 4.7 kg/m3 | 1461.2 ± 5 m/s | 928.395 ± 4.7 kg/m3 | 1442.4 ± 5 m/s | 924.174 ± 4.6 kg/m3 | 1423.8 ± 5 m/s | 919.945 ± 4.6 kg/m3 | 1405.3 ± 5 m/s | 915.702 ± 4.6 kg/m3 | 1386.9 ± 5 m/s | 911.431 ± 4.5 kg/m3 |  |  |  |  |  |  | 
NCCO [2-aminoethan-1-ol] | 1735.5 ± 1.3 m/s | 1015.98 ± 0.24 kg/m3 | 1719.2 ± 1.3 m/s | 1012.02 ± 0.24 kg/m3 | 1703.1 ± 1.3 m/s | 1008 ± 0.24 kg/m3 | 1686.8 ± 1.3 m/s | 1004.02 ± 0.23 kg/m3 | 1670.5 ± 1.3 m/s | 1000.04 ± 0.23 kg/m3 | 1654.2 ± 1.3 m/s | 996.029 ± 0.23 kg/m3 | 1637.9 ± 1.3 m/s | 992.014 ± 0.23 kg/m3 |  |  |  |  |  |  | 
NCCO [2-aminoethan-1-ol] + CC(C)(N)CO |  |  |  |  |  |  |  |  |  |  |  |  |  |  | 1719.2 ± 1.3 m/s | 1012.02 ± 0.24 kg/m3 | 1703.1 ± 1.3 m/s | 1008 ± 0.24 kg/m3 | 1686.8 ± 1.3 m/s | 1004.02 ± 0.23 kg/m3 | speed of sound ([2]; 293.15 K): 1735.5 ± 1.3 m/s; mass density ([2]; 293.15 K): 1015.98 ± 0.24 kg/m3; speed of sound ([2]; 313.15 K): 1670.5 ± 1.3 m/s; mass density ([2]; 313.15 K): 1000.04 ± 0.23 kg/m3; speed of sound ([2]; 318.15 K): 1654.2 ± 1.3 m/s; mass density ([2]; 318.15 K): 996.029 ± 0.23 kg/m3; speed of sound ([2]; 323.15 K): 1637.9 ± 1.3 m/s; mass density ([2]; 323.15 K): 992.014 ± 0.23 kg/m3
NCCO [2-aminoethan-1-ol] + CN(CCO)CCO |  |  |  |  |  |  |  |  |  |  |  |  |  |  | 1719.2 ± 1.3 m/s | 1012.02 ± 0.24 kg/m3 | 1703.1 ± 1.3 m/s | 1008 ± 0.24 kg/m3 | 1686.8 ± 1.3 m/s | 1004.02 ± 0.23 kg/m3 | speed of sound ([2]; 293.15 K): 1735.5 ± 1.3 m/s; mass density ([2]; 293.15 K): 1015.98 ± 0.24 kg/m3; speed of sound ([2]; 313.15 K): 1670.5 ± 1.3 m/s; mass density ([2]; 313.15 K): 1000.04 ± 0.23 kg/m3; speed of sound ([2]; 318.15 K): 1654.2 ± 1.3 m/s; mass density ([2]; 318.15 K): 996.029 ± 0.23 kg/m3; speed of sound ([2]; 323.15 K): 1637.9 ± 1.3 m/s; mass density ([2]; 323.15 K): 992.014 ± 0.23 kg/m3
NCCO [2-aminoethan-1-ol] + OCCN(CCO)CCO |  |  |  |  |  |  |  |  |  |  |  |  |  |  | 1719.2 ± 1.3 m/s | 1012.02 ± 0.24 kg/m3 | 1703.1 ± 1.3 m/s | 1008 ± 0.24 kg/m3 | 1686.8 ± 1.3 m/s | 1004.02 ± 0.23 kg/m3 | speed of sound ([2]; 313.15 K): 1670.5 ± 1.3 m/s; mass density ([2]; 313.15 K): 1000.04 ± 0.23 kg/m3; speed of sound ([2]; 318.15 K): 1654.2 ± 1.3 m/s; mass density ([2]; 318.15 K): 996.029 ± 0.23 kg/m3; speed of sound ([2]; 323.15 K): 1637.9 ± 1.3 m/s; mass density ([2]; 323.15 K): 992.014 ± 0.23 kg/m3
CN(CCO)CCO [N-methyldiethanolamine] | 1585.5 ± 2.1 m/s | 1042.2 ± 0.92 kg/m3 | 1570.1 ± 2.1 m/s | 1038.29 ± 0.92 kg/m3 | 1554.8 ± 2.1 m/s | 1034.36 ± 0.91 kg/m3 | 1539.5 ± 2.1 m/s | 1030.43 ± 0.9 kg/m3 | 1524.2 ± 2.1 m/s | 1026.48 ± 0.89 kg/m3 | 1508.8 ± 2.1 m/s | 1022.53 ± 0.88 kg/m3 | 1493.4 ± 2.1 m/s | 1018.58 ± 0.88 kg/m3 |  |  |  |  |  |  | 
OCCN(CCO)CCO [triethanolamine] |  |  | 1610.5 ± 1.3 m/s | 1120.82 ± 0.33 kg/m3 | 1600.5 ± 1.3 m/s | 1118.06 ± 0.32 kg/m3 | 1595.5 ± 1.3 m/s | 1115.26 ± 0.32 kg/m3 | 1587 ± 1.3 m/s | 1112.4 ± 0.32 kg/m3 | 1578.8 ± 1.3 m/s | 1109.6 ± 0.32 kg/m3 | 1570.6 ± 1.3 m/s | 1106.78 ± 0.32 kg/m3 |  |  |  |  |  |  | 

Reference: the NIST ThermoML archive (doi:10.1021/je900437b)
